{"source": "paper PMC9098913", "about": "“In vitro reconstitution of Escherichia coli divisome activation” (Nature Communications, 2022)", "key": {"[1]": {"test": "Membrane off-binding rate (koff) of FtsA from FRAP", "design": "Off binding rate koff: unit not given here", "settings": "Fig. S4i", "source_text": "We could also use the data from these bleaching experiments to quantify the membrane-binding kinetics and diffusion of membrane-bound proteins by analysing the change of the fluorescence profile during recovery.\nEquimolar concentrations of Cy3- and Cy5-labelled FtsA, supplemented with 20% unlabelled FtsA were used to study FRET and FRAP. Five pre-bleach frames were acquired, followed by acceptor photobleaching of a rectangular ROI with 40% 641 nm laser power and a dwell size of 1 µs/pixel, 75% overlapping lines. The recovery of the signal or the increase in donor intensity were measured with either two frames or one frame per second.\nBleaching the acceptor dye leads to an increase in the donor intensity, which can be used to quantify the Foerster Resonance energy transfer (FRET)[48]. FRET efficiency was quantified with E%=Ipost/Ipost+Ipre⋅100 , where Ipost is the intensity of the […] and Ipre is the […]. […] To extract the contribution of both processes, we adjusted a routine recently published by Gerganova et al.[33]. In short, the code provides the contribution of both modes of recovery by analysing the shape of the fluorescence recovery profile. […] Contribution of diffusion leads to a change of the slope of the outer borders of the bleached region (S4h right). Thus, by measuring the change of the slope of the border recovery, diffusion and simple on/off binding can be distinguished. We developed “FRAPdiff”, a graphical user interface, which uses the original fit routine by David Rutkowski. It can be used directly on.tiff movies with annotated bleach regions as ImageJ ROIs. In addition, we added optional bleach correction, user selectable projection axis (x or y), and optional mirroring of the recovery profiles, if bleaching was not symmetric. The original fit routine for estimating the recovery and diffusion dynamics can be found at https://github.com/davidmrutkowski/1DReflectingDiffusion. FRAPdiff is available at 10.5281/zenodo.6400639[49] under the GPLv3 open-source license."}, "FtsZ [2]": {"system": "FtsZ", "settings": "[…] Tris-NTA; p-value 3.86 × 10^−4; three repeats", "description": "(§1) Co-treadmilling of FtsA with FtsZ relies on the dynamic exchange of FtsA on the membrane. […] To investigate the respective contributions of membrane binding kinetics and FtsA self-interaction on the colocalization dynamics with FtsZ, we wanted to create variants of the two FtsA proteins that are permanently attached to the membrane. […] Accordingly, in these experiments the proteins only differ in their tendency to form oligomers.\n(§2) To study colocalization of His-tagged variants of FtsA, 0.5–1 µM of Cy5 labelled His-tagged FtsAs were added to the chamber, incubated for 20 min and washed 6x with reaction buffer. […] To control the density of membrane-bound FtsA, SUVs without and with Tris-NTA lipids were mixed to obtain the respective Tris-NTA concentrations. To perform FRET/FRAP experiments, equimolar concentrations of Cy3 and Cy5 labelled His-tagged FtsAs (total 0.5–1 µM) or His-SUMO-Cys were added to a chamber and treated as above. […] FRAP experiments were performed as described before.\nTime-lapse videos were first intensity-corrected and contrast-enhanced to avoid bleaching effects and simplify subsequent analysis. To remove contributions of X–Y drift, the videos were processed with the Linear Stack Alignment with SIFT plugin. Proper alignment was checked with the 3TP align plugin (J. A. Parker; Beth Israel Deaconess Medical Center, Boston). Subsequently, regions of interest (ROIs) in the center of the stacks were chosen for colocalization analysis. The Pearson’s correlation coefficient (PCC) was quantified with the Image CorrelationJ 1o plugin. To extract information about the relative ratio of FtsZ/FtsA molecules (slope of linear regression), we also used the Image CorrelationJ 1o plugin. As an output, the plugin provides a scatterplot of FtsZ vs FtsA intensities, to which we fitted a linear slope y=k⋅x+d , where k is the slope and d the offset. The slope was used as an estimate for the ratio of FtsA molecules below FtsZ filaments."}, "FtsZ [3]": {"system": "FtsZ", "settings": "[…] Tris-NTA; p-value […] 10^−4 (vs WT-His6); 7.78 × 10^−5 (vs R286W); three repeats", "description": "as §1, §2\nTreadmilling dynamics, were quantified using an automated image analysis protocol previously developed by our group. To visualize colocalization of the co-treadmilling FtsZ & FtsA filaments, we used dual-colour videos obtained at an acquisition rate of one frame per 2 s. The two channels were aligned using FIJI’s 3TP align plugin. Both channels were then subjected to the image subtraction protocol and colocalization was measured as described above."}}}
{"substance": "FtsA-His6: FtsA WT (1-405) with amphipathic helix replaced by C-terminal His-tag", "values": [{"measurement": "Off binding rate koff", "setting": "[1]; 0.10 % Tris-NTA lipids, + FtsZ, summary value", "value": 0.0359}, {"measurement": "Off binding rate koff", "setting": "[1]; 0.10 % Tris-NTA lipids, replicate 1", "value": 0.020}, {"measurement": "Off binding rate koff", "setting": "[1]; 0.10 % Tris-NTA lipids, replicate 2", "value": 0.006}, {"measurement": "Off binding rate koff", "setting": "[1]; 0.10 % Tris-NTA lipids, without FtsZ, summary value", "value": 0.0131}, {"measurement": "Off binding rate koff", "setting": "[1]; 0.40 % Tris-NTA lipids, + FtsZ, summary value", "value": 0.0068}, {"measurement": "Off binding rate koff", "setting": "[1]; 0.40 % Tris-NTA lipids, without FtsZ, summary value", "value": 0.0123}, {"measurement": "Off binding rate koff", "setting": "[1]; 0.60 % Tris-NTA lipids, + FtsZ, summary value", "value": 0.0048}, {"measurement": "Off binding rate koff", "setting": "[1]; 0.60 % Tris-NTA lipids, without FtsZ, summary value", "value": 0.0097}, {"measurement": "Off binding rate koff", "setting": "[1]; […] Tris-NTA lipids, + FtsZ, summary value", "value": 0.0182}, {"measurement": "Off binding rate koff", "setting": "[1]; […] Tris-NTA lipids, replicate 1", "value": 0.0017}, {"measurement": "Off binding rate koff", "setting": "[1]; […] Tris-NTA lipids, replicate 2", "value": 0.018}, {"measurement": "Off binding rate koff", "setting": "[1]; […] Tris-NTA lipids, without FtsZ, summary value", "value": 0.0098}, {"measurement": "PCC His-tagged FtsA/FtsZ", "setting": "FtsZ [2]", "value": "0.13 ± 0.06"}, {"measurement": "PCCdiff His-tagged FtsA/FtsZ", "setting": "FtsZ [3]", "value": "0.07 ± 0.04"}]}
